Data set [1] can be described thus: Selectivity index, ratio of IC50 for human MRC5 cells to IC50 for human A549 cells assessed as cell growth inhibition by CCK8 assay. Type of data set: toxicity. To be noted: MRC5 cells versus A549 cells, read-out: Ratio IC50. Background: Formazan colour is commonly taken as a measure of viable cells.
Data set [2] in a line: Selectivity index, ratio of IC50 for human MRC5 cells to IC50 for human HepG2 cells assessed as cell growth inhibition by CCK8 assay. Type of data set: toxicity. To be noted: MRC5 cells versus HepG2 cells, read-out: Ratio IC50.
In a further data set the test system is MRC5. As to the kind of experiment: Cytotoxicity against human MRC5 cells assessed as cell growth inhibition by CCK8 assay. In kind it is cell-based.
The nature of data set [3]: Selectivity index, ratio of IC50 for human MRC5 cells to IC50 for human HT-29 cells assessed as cell growth inhibition by CCK8 assay. Particulars: MRC5 cells versus HT-29 cells, read-out: Ratio IC50. Type of data set: toxicity.
A short description of data set [4]: Selectivity index, ratio of IC50 for human MRC5 cells to IC50 for human SKOV3 cells assessed as cell growth inhibition by CCK8 assay. To be noted: MRC5 cells versus SKOV3 cells, read-out: Ratio IC50. In kind it is toxicity.
In another data set the test system is HCC827. Briefly: Antiproliferative activity against human HCC827 cells assessed as cell growth inhibition by CCK8 assay. In kind it is functional, cell-based.
A further data set relates to NCI-H1299. Briefly: Antiproliferative activity against human H1299 cells assessed as cell growth inhibition by CCK8 assay. Type of data set: functional, cell-based.
The next data set relates to MDA-MB-231. As to the kind of experiment: Antiproliferative activity against human MDA-MB-231 cells assessed as cell growth inhibition by CCK8 assay. In kind it is functional, cell-based.
A further data set has as its system A-375. As to the kind of experiment: Antiproliferative activity against human A375 cells assessed as cell growth inhibition by CCK8 assay. Type of data set: functional, cell-based.
The next data set has as its system AGS. As to the kind of experiment: Antiproliferative activity against human AGS cells assessed as cell growth inhibition by CCK8 assay. In kind it is functional, cell-based.
Data set [5] concerns the target Programmed cell death protein 1/Programmed cell death 1 ligand 1 (Homo sapiens, UniProt Q15116+Q9NZQ7). As to the kind of experiment: Inhibition of PD1 (unknown origin)/PDL1 (unknown origin) protein-protein interaction by HTRF assay. Type of data set: protein-complex assay.
Data set [6] deals with A549. As to the kind of experiment: Inhibition of cell migration in human A549 cells at 0.6 uM incubated for 48 hrs by wound healing assay relative to control. Particulars: A549, 48 h. In kind it is functional.
Data set [7] concerns SK-OV-3. As to the kind of experiment: Inhibition of cell migration in human SKOV3 cells at 0.6 uM incubated for 48 hrs by wound healing assay relative to control. Particulars: SK-OV-3, 48 h. In kind it is functional.
A further data set concerns HepG2. Briefly: Inhibition of cell migration in human HepG2 cells incubated for 48 hrs by wound healing assay. Type of data set: functional, cell-based.
The test system of a further data set is HT-29. Briefly: Inhibition of cell migration in human HT-29 cells incubated for 48 hrs by wound healing assay. In kind it is functional, cell-based.
In data set [8] the test system is A549. Briefly: Inhibition of cell migration in human A549 cells incubated for 48 hrs by wound healing assay. Type of data set: functional, cell-based.
Data set [9] deals with SK-OV-3. Briefly: Inhibition of cell migration in human SKOV3 cells incubated for 48 hrs by wound healing assay. In kind it is functional, cell-based.
Data set [10] deals with A549. Briefly: Antiinvasive activity against human A549 cells at 0.6 uM after 24 hrs by crystal violet staining based transwell assay relative to control. In kind it is functional.
Data set [11] relates to SK-OV-3. As to the kind of experiment: Antiinvasive activity against human SKOV3 cells at 0.6 uM after 24 hrs by crystal violet staining based transwell assay relative to control. In kind it is functional.
For data set [12], the system named is A549. Briefly: Induction of apoptosis in human A549 cells assessed as live cells at 5 uM by FITC staining based flow cytometry (reference value: 96 to 96.6 %). Type of data set: functional. Background: In flow cytometry, cells or beads pass a laser one at a time.
In data set [13] the test system is A549. As to the kind of experiment: Induction of apoptosis in human A549 cells assessed as early apoptotic cells at 5 uM by FITC staining based flow cytometry (reference value: 0.34 to 0.39 %). Type of data set: functional.
The subject of data set [14] is A549. Briefly: Induction of apoptosis in human A549 cells assessed as late apoptotic cells at 5 uM by FITC staining based flow cytometry (reference value: 2.12 to 2.33 %). In kind it is functional.
Data set [15] relates to A549. Briefly: Induction of apoptosis in human A549 cells assessed as necrotic cells at 5 uM by FITC staining based flow cytometry (reference value: 0.78 to 1.49 %). Type of data set: functional.
Data set [16] relates to A549. As to the kind of experiment: Induction of apoptosis in human A549 cells assessed as live cells at 10 uM by FITC staining based flow cytometry (reference value: 96 to 96.6 %). Type of data set: functional.
Data set [17] has as its system A549. As to the kind of experiment: Induction of apoptosis in human A549 cells assessed as early apoptotic cells at 10 uM by FITC staining based flow cytometry (reference value: 0.34 to 0.39 %). Type of data set: functional.
Data set [18] relates to A549. Briefly: Induction of apoptosis in human A549 cells assessed as late apoptotic cells at 10 uM by FITC staining based flow cytometry (reference value: 2.12 to 2.33 %). In kind it is functional.
Data set [19] relates to A549. As to the kind of experiment: Induction of apoptosis in human A549 cells assessed as necrotic cells at 10 uM by FITC staining based flow cytometry (reference value: 0.78 to 1.49 %). In kind it is functional.
The test system of data set [20] is SK-OV-3. As to the kind of experiment: Induction of apoptosis in human SKOV3 cells assessed as live cells at 5 uM by FITC staining based flow cytometry (reference value: 95.5 to 96 %). In kind it is functional.
The subject of data set [21] is SK-OV-3. Briefly: Induction of apoptosis in human SKOV3 cells assessed as early apoptotic cells at 5 uM by FITC staining based flow cytometry (reference value: 0.59 to 0.97 %). Type of data set: functional.
Data set [22] deals with SK-OV-3. As to the kind of experiment: Induction of apoptosis in human SKOV3 cells assessed as late apoptotic cells at 5 uM by FITC staining based flow cytometry (reference value: 2.14 to 2.83 %). Type of data set: functional.
In data set [23] the test system is SK-OV-3. Briefly: Induction of apoptosis in human SKOV3 cells assessed as necrotic cells at 5 uM by FITC staining based flow cytometry (reference value: 1.74 to 1.93 %). In kind it is functional.
The subject of data set [24] is SK-OV-3. Briefly: Induction of apoptosis in human SKOV3 cells assessed as live cells at 10 uM by FITC staining based flow cytometry (reference value: 95.5 to 96 %). In kind it is functional.
In data set [25] the test system is SK-OV-3. As to the kind of experiment: Induction of apoptosis in human SKOV3 cells assessed as early apoptotic cells at 10 uM by FITC staining based flow cytometry (reference value: 0.59 to 0.97 %). In kind it is functional.
The test system of data set [26] is SK-OV-3. Briefly: Induction of apoptosis in human SKOV3 cells assessed as late apoptotic cells at 10 uM by FITC staining based flow cytometry (reference value: 2.14 to 2.83 %). In kind it is functional.
In data set [27] the test system is SK-OV-3. As to the kind of experiment: Induction of apoptosis in human SKOV3 cells assessed as necrotic cells at 10 uM by FITC staining based flow cytometry (reference value: 1.74 to 1.93 %). Type of data set: functional.

The source made the active and inactive calls. No cut-off for these calls is given here.

From ChEMBL document CHEMBL4622943, “Design, synthesis and biological evaluation of 2-methyl-(1,1'-biphenyl)-pyrimidine conjugates” (Bioorg Med Chem Lett, 2020) come the findings set out here.

In general, IC50 refers to the concentration needed to halve the response being measured. By inhibition is commonly meant how much of the control response was suppressed.

Chain of Programmed cell death protein 1/Programmed cell death 1 ligand 1 (Q15116 whole entry): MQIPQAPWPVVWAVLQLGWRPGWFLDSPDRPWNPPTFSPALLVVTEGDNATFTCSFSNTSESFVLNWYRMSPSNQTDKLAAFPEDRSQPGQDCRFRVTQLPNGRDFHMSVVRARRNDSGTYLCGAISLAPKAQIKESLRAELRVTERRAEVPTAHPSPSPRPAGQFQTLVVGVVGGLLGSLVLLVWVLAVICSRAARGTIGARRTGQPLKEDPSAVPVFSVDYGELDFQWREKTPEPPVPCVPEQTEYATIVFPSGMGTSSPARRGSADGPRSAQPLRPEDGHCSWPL
Chain of Programmed cell death protein 1/Programmed cell death 1 ligand 1 (Q9NZQ7 whole entry): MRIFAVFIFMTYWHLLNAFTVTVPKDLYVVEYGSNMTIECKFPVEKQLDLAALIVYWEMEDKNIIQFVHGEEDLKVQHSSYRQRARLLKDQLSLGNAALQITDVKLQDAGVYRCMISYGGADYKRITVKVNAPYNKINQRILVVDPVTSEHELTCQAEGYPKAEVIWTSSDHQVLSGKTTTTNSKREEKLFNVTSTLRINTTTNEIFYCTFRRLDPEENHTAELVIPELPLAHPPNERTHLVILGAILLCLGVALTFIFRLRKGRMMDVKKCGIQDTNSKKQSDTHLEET

Take `CCN(CC)CCCNc1cc(N2CCNCC2)nc(NCc2cccc(-c3ccccc3)c2C)n1`: the selectivity ratio is 147 in [1], 82 in data set [2], 278 in data set [3] and 278 in data set [4]. The IC50 in the data set on MRC5 came to 579 µM; with HCC827, 5.27 µM; with NCI-H1299, 6.74 µM; in the data set with MDA-MB-231, 4.88 µM; in the data set on A-375, 4.03 µM; with AGS, 3.11 µM. Inhibition in data set [5] was half-maximal at 5.15 µM (IC50). Also, the inhibition at 0.6 µM amounted to 42.4% in the data set with A549 [6] and 68.6% with SK-OV-3 [7]. Further, the inhibition result in the data set with HepG2, with HT-29, in the data set on A549 [8] and in the data set on SK-OV-3 [9] was “Active” in each case. In addition, the Activity in the data set with A549 [10] was determined as 70.23%; in the data set with SK-OV-3 [11] it was 66.68%; in the data set on A549 [12], 87.1%; with A549 [13], 4.3%; with A549 [14], 6.33%; with A549 [15] it was 2.24%. Moreover, the Activity was determined as 59.6% with A549 [16]; 17.7% in the data set on A549 [17]; 14.6% in the data set on A549 [18]; 8.19% in the data set on A549 [19]; 87.8% in the data set on SK-OV-3 [20]; 5% with SK-OV-3 [21]. Further, the Activity with SK-OV-3 [22] is 4.08%; with SK-OV-3 [23] it was 3.16%; in the data set with SK-OV-3 [24], 54.5%; in the data set with SK-OV-3 [25], 11.5%; with SK-OV-3 [26] it was 8.26%; with SK-OV-3 [27] it was 25.7%.

For the compound `Cc1c(CNc2nc(NCCCN3CCCCC3)cc(N3CCOCC3)n2)cccc1-c1ccccc1`, the selectivity ratio in data set [1] came out at 185; in data set [2] it was 295; in data set [3] it was 267; in [4], 267. Moreover, in the data set with MRC5, the IC50 stood at 879 µM. Also, the inhibition entry in the data set with HepG2, with HT-29, in the data set on A549 [8] and with SK-OV-3 [9] was “Active” each time. Moreover, the Activity in the data set with SK-OV-3 [11] amounted to 60%; in the data set on SK-OV-3 [20] it was 95%; in the data set with SK-OV-3 [21], 0.85%; with SK-OV-3 [22] it was 2.31%; in the data set with SK-OV-3 [23], 1.87%; in the data set on SK-OV-3 [24] it was 91.3%. Moreover, the Activity with SK-OV-3 [25] is reported as 1.49%; in the data set with SK-OV-3 [26], 4.98%; with SK-OV-3 [27], 2.18%.

`Cc1c(CNc2nc(NCCCN3CCCC3)cc(N3CCOCC3)n2)cccc1-c1ccccc1`: the selectivity ratio in [1] came out at 103; in data set [2], 198; in data set [3], 139; in [4] it was 139. Besides, the IC50 in the data set on MRC5 amounted to 1050 µM; with HCC827, 7.28 µM; with NCI-H1299, 8.1 µM; with MDA-MB-231, 6.75 µM; with A-375 it was 7 µM; in the data set with AGS it was 4.52 µM. The inhibition result in the data set on HepG2, with HT-29, with A549 [8] and in the data set with SK-OV-3 [9] was “Active” in each case.

Consider `Cc1c(CNc2nc(NCCCN(C)C)cc(N3CCOCC3)n2)cccc1-c1ccccc1`, for which the selectivity ratio was 112 in data set [1], 213 in data set [2], 129 in [3] and 129 in data set [4]. Besides, the IC50 in the data set on MRC5 came to 1050 µM. In addition, the inhibition at 0.6 µM came out at 53.4% in the data set with A549 [6] and 39.6% in the data set on SK-OV-3 [7]. The inhibition result with HepG2, with HT-29, with A549 [8] and in the data set with SK-OV-3 [9] was “Active” throughout. Further, the Activity in the data set with A549 [10] was determined as 21.81%; in the data set with A549 [12], 92.7%; in the data set on A549 [13], 1.28%; with A549 [14], 3.99%; with A549 [15], 2.05%; in the data set on A549 [16] it was 81.7%. Moreover, the Activity in the data set with A549 [17] came to 4.42%; in the data set on A549 [18], 18.2%; in the data set on A549 [19], 3.76%.

As for `Cc1c(CNc2nc(NCCCN3CCOCC3)cc(N3CCOCC3)n2)cccc1-c1ccccc1`, the IC50 in the data set with HCC827 was 7.28 µM; with NCI-H1299 it was 8.1 µM; in the data set with MDA-MB-231, 6.75 µM; with A-375 it was 7 µM; with AGS, 4.52 µM.

For `CCN(CC)CCCNc1cc(N2CCOCC2)nc(NCc2cccc(-c3ccccc3)c2C)n1`, the selectivity ratio in [1] is 114; in data set [2], 165; in data set [3] it was 119; in [4], 119. The IC50 with MRC5 worked out at 924 µM. For the same compound, the inhibition entry with HepG2, with HT-29, with A549 [8] and in the data set on SK-OV-3 [9] was “Active” each time.
